Values quoted from earlier work, collected in US11607386B2, “Liposomes encapsulating adenosine” (New York University, priority 2019, dated 2023).

Columns and labels:
[1] = not given; remark: listed apart in the source

half-life: mere seconds
solubility of adenosine in water [1]: 7000 µg/mL
Structure (SMILES): Nc1ncnc2c1ncn2[C@@H]1O[C@H](CO)[C@@H](O)[C@H]1O [adenosine]
